Source: paper PMC7998669, “7-(2-Anilinopyrimidin-4-yl)-1-benzazepin-2-ones Designed by a “Cut and Glue” Strategy Are Dual Aurora A/VEGF-R Kinase Inhibitors” (Molecules, 2021)
≈ marks a conversion by molar mass, not a printed value.

How the values were obtained:
Aurora A = system: Aurora A; set-up: method as in PMID 27406026; settings: cited from earlier work
VEGF-R3 = biological target: T1, VEGF-R3 (Homo sapiens, UniProt P35916); test: radiometric 33PanQinase protein kinase assay; format: biochemical; settings: radiometric assay, 1 µM ATP
T1 construct: host or cells: Sf9 (baculovirus)
Experimental: (§1) The inhibitory activity of prototype 2a was determined in a panel of 24 tumor-relevant protein kinases using a radiometric assay. Only the kinases Aurora A, VEGF-R2 and VEGF-R3 were inhibited with single digit micromolar IC50 values (Table 2). Structural modifications were then implemented, particularly directed to improve inhibition of Aurora A. The so-designed congeners with small substituents at the aniline ring 2b–2n were examined for inhibition of Aurora A and of VEGF-R2, VEGF-R3 and Aurora B for comparison (Table 3).
(§2) The screening for protein kinase inhibition was performed with the radiometric ^33Panqinase activity assay at Reaction Biology Europe GmbH (Freiburg) using a robotic system (Beckmann Coulter/SagianRoboter) and 96-well plates (FlashPlates, Perkin/Elmer/NEN, Boston, MA, USA). In brief, the transfer of ^33P-phosphate into the substrate was measured with a microplate scintillation counter (Microbeta Trilux, Wallace). Protein kinases were expressed in Sf9 cells as recombinant glutathione S-transferase (GST) or polyhistidine (His)-tagged proteins in baculovirus. Isolation and purification of expressed kinases were performed with affinity chromatography by using GSH agarose (Sigma) or Ni-NTA agarose (Qiagen). The standard solution for each enzyme contained: 60 mM HEPES-NaOH (pH 7.5), 3 mM MgCl2, 3 µM sodium orthovanadate, 1.2 mM DTT, 50 µg/mL PEG20000 and 1 µM [γ-^33P]-ATP (approximately 5 × 10^5 cpm per well). In chronological order the reaction mixture was prepared: 20 µL standard solution, 5 µL ATP solution in water, 5 µL of the compound in 10% DMSO and 20 µL of enzyme/substrate mixture (50:50). Each kinase contained different substrates in different concentrations: 125 ng/50 µL Poly(Glu, Tyr)4:1 for 20 ng/50 µL IGF1-R, 25 ng/50 µL IGF1-R, 20 ng/50 µL EGF-R, 25 ng/50 µL EGF-R, 40 ng/50 µL EGF-R, 10 ng/50 µL EPHB4, 20 ng/50 µL EPHB4, 200 ng/50 µL ERBB2, 10 ng/50 µL SRC, 100 ng/50 µL FAK, 200 ng/50 µL FAK, 50 ng/50 µL VEGF-R2, 100 ng/50 µL VEGF-R3, 200 ng/50 µLTIE2; 250 ng/50 µL Poly(Glu, Tyr)4:1 for 200 ng/50 µL TIE2; 500 ng/50 µL tetra (LRRWSLG) for 50 ng/50 µL Aurora-A, 25 ng/50 µL PAK4, 25 ng/50 µL PDK1; 250 ng/50 µL tetra (LRRWSLG) for 50 ng/50 µL Aurora-B, 200 ng/50 µL Aurora-B; 125 ng/50 µL Histon H1 for 100 ng/50 µL CDK2/CycA; 250 ng/50 µL Rb-CTF for 50 ng/50 µL CDK/CycD1; 500 ng/50 µL Rb-CTF for 50 ng/50 µL CDK4/CycD1; 125 ng/50 µL Poly(ala, Glu, Lys, Tyr)6:2:5:1 for 25 ng/50 µL INS-R, 50 ng/50 µL PDGFR-beta, 100 ng/50 µL PDGFR-beta, 100 ng/50 µL FLT3, 150 ng/50 µL FLT3, 20 ng/50 µL MET, 50 ng/50 µL MET, 100 ng/50 µL MET; 250 ng/50 µL Casein for 200 ng/50 µL CK2-alpha1, 200 ng/50 µL PLK1; 1000 ng/50 µL Casein for 200 ng/50 µL PLK1, 200 ng/50 µL CK2-alpha1; 1000 ng/50 µLGSK3 (14–27) for 100 ng/50 µL AKT1; 125 ng/50 µL p53-CTM for 150 ng/50 µL CK2-alpha1, 200 ng/50 µLCK2-alpha1; 250 ng/50 µL MEK-KM for 20 ng/50 µL B-RAF-VE; autophosphorylation at ARK5, COT and SAK. After incubation (80 min, 30 °C) the reaction was stopped by adding 50 µL 2% (v/v) phosphoric acid to the reaction mixture. The microplate was washed twice with 200 µL 0.9% (v/v) saturated sodium chloride or water. The measured radioactivity, conditioned by the incorporation of [γ-^33P]-phosphate, is proportional to kinase activity. Furthermore, low control and high control were measured to determine the residual activity (%). As low controls, mixtures with substrate, but without enzyme were used to determine the unspecific binding of [γ-^33P]-phosphate to the well plate. Mixtures with enzyme, but without inhibitor were used as high controls to determine maximum enzyme activity. The IC50-values of the distinct compounds were calculated with Quattro Workflow V1.1.0.8 (Quattro Research GmbH, München, Germany). Dose response curves were generated by measurement of the residual activity of ten different inhibitor concentrations (0.1 mM, 30.0 µM, 10 µM, 3.0 µM, 1.0 µM, 0.3 µM, 0.1 µM, 30.0 nM, 10.0 nM and 3.0 nM). […]

Aurora-A = biological target: T2, Aurora-A (Homo sapiens, UniProt O14965); test: radiometric 33PanQinase protein kinase assay; format: biochemical; settings: radiometric assay, 1 µM ATP
T2 construct: host or cells: Sf9 (baculovirus)
T2 sequence (O14965 1-403): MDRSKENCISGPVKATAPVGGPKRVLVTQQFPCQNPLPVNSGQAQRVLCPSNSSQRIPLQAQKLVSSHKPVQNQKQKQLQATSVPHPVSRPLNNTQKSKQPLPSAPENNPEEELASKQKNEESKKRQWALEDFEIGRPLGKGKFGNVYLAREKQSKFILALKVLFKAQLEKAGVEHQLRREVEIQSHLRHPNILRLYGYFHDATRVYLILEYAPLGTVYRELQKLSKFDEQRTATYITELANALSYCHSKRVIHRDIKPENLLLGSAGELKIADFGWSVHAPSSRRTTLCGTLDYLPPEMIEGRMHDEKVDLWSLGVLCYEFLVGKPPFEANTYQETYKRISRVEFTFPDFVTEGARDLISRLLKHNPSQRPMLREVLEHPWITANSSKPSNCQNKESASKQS
Experimental: as §1, §2

VEGF-R2 = biological target: T3, VEGF-R2 (Homo sapiens, UniProt P35968); test: radiometric 33PanQinase protein kinase assay; format: biochemical; settings: radiometric assay, 1 µM ATP
T3 construct: host or cells: Sf9 (baculovirus)
Experimental: as §1, §2

Aurora-B = biological target: T4, Aurora-B (Homo sapiens, UniProt Q96GD4); test: radiometric 33PanQinase protein kinase assay; format: biochemical; settings: radiometric assay, 1 µM ATP
T4 construct: host or cells: Sf9 (baculovirus)
Experimental: as §1, §2

[1] = kinetic solubility by nephelometry; format: physicochemical; settings: phosphate buffer, 25 °C, pH 7.4, aqueous buffer, kinetic from dmso stock, phosphate buffer pH 7.4, 1% DMSO, mean of two measurements, range in brackets
Experimental: The kinetic solubility of test compounds was determined by nephelometry. Dilution series of test compounds in DMSO with eight to ten different concentrations were prepared. The dilutions were pipetted (2 µL) into the cavities of a 96 well plate (CorningTM UV-transparent flat-bottom microtiter plate; Corning Incorporated, Kennebunk, ME, USA). A phosphate buffer solution pH 7.4 (198 µL) was added, so that the DMSO concentration in the measured solutions was 1%. Three wells were filled with DMSO and phosphate buffer pH 7.4 (2:198) and measured as blank values. The 96 well plate prepared in this way was measured with the NEPHELOstar® Plus nephelometer (BMG Labtech GmbH, Ortenberg, Germany, software: Omega 5.11) at a temperature of 25 °C. Previously, the plate was shaken at 500 rpm for 10 s and the laser intensity was set to 80%. The beam focus was set to 2.50 mm. If the test substance is completely soluble, only a scattering close to the blank value is detected. As soon as a critical concentration is reached in which the kinetic solubility of the test compound is exceeded, solid particles precipitate. Undissolved particles in the sample scatter the laser beam. The intensity of the scattered light is determined, which is proportional to the number of particles in the solution. The blank values were determined and subtracted from the measured values of the test compounds. By measuring different concentrations of the test substances, different intensities of the scattered light, indicated as RNU (relative nephelometric units), were determined. Kick off curves were obtained by plotting concentrations against the RNU values. The point of intersection of the horizontal and of the ascending part of the kick-off curve indicated the kinetic solubility concentration.

T1 sequence (P35916 25-1363): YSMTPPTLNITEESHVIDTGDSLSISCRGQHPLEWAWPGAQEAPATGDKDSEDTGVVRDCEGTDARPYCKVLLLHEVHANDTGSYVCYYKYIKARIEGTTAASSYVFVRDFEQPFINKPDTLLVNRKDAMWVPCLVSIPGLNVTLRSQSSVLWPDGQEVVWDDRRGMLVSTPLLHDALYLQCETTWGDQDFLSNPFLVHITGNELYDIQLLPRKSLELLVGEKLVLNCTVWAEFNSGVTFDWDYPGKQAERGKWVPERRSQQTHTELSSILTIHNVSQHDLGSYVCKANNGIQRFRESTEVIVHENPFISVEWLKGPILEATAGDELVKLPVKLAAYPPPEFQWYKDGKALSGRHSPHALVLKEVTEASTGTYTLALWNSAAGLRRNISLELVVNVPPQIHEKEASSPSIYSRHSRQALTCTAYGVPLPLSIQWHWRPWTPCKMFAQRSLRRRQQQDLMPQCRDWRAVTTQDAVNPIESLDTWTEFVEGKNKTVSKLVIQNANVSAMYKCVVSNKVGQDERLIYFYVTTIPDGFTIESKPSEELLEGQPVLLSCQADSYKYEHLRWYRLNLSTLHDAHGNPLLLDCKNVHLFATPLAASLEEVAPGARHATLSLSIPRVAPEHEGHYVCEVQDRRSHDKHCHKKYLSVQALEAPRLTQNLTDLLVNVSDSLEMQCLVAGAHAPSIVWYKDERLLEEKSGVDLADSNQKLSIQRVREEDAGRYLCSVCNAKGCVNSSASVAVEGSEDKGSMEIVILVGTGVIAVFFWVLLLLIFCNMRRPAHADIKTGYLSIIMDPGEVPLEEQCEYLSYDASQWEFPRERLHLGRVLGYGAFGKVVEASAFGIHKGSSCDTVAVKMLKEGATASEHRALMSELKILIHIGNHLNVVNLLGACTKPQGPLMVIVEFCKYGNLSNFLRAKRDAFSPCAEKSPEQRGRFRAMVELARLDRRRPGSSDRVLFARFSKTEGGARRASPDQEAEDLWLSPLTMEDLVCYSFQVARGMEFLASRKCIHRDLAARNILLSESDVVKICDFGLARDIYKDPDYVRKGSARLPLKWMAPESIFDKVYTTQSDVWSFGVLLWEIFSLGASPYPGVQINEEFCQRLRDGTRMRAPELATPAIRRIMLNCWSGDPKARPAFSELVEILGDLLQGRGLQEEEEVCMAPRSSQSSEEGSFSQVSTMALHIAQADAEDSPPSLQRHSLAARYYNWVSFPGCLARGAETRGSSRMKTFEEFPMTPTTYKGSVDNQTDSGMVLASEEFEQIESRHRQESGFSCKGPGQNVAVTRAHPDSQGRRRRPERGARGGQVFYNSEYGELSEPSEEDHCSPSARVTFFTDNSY
T3 sequence (P35968 20-1356): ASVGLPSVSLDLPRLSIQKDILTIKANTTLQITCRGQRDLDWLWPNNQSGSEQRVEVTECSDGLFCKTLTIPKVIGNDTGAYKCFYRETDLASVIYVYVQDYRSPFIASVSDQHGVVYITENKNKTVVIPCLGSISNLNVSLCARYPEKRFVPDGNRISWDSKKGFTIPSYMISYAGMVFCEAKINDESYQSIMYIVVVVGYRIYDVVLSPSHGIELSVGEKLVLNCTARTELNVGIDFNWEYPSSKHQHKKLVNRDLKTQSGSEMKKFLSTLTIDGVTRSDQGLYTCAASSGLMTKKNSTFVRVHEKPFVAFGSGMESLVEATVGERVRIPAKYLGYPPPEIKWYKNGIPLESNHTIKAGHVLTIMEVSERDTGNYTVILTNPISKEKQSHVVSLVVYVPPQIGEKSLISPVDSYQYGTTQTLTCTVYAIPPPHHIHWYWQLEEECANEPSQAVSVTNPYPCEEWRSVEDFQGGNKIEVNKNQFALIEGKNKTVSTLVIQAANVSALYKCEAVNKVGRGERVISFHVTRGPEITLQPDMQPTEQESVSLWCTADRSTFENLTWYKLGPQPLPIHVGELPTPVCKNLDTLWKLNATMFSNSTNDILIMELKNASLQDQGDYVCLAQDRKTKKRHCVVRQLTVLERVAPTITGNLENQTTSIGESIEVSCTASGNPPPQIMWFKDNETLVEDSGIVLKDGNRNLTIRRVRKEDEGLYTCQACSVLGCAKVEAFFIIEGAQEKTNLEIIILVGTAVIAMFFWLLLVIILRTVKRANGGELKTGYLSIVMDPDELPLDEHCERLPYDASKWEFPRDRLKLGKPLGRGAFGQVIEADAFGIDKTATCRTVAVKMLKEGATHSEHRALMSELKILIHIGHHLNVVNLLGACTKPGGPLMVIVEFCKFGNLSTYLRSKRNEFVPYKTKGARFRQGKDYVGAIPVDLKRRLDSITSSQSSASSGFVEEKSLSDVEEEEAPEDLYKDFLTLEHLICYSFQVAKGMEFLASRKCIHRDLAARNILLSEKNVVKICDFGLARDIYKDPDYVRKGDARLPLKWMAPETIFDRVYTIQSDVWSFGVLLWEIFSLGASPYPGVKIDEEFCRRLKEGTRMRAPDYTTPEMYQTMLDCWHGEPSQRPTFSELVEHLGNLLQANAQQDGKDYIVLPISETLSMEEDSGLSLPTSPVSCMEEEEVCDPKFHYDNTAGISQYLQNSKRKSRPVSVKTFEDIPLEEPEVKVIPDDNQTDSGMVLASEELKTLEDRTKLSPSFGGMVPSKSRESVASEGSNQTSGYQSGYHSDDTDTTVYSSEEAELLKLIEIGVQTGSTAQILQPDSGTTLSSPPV
T4 sequence (Q96GD4 whole entry): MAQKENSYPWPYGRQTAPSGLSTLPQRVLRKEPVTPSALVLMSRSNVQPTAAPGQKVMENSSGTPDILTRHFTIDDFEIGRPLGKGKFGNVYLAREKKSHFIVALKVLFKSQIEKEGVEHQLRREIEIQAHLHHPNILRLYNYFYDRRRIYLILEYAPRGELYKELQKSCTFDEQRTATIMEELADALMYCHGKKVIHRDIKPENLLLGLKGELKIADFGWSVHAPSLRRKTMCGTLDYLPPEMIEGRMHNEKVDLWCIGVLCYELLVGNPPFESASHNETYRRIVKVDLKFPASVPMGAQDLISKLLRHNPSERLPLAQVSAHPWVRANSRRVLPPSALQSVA

Structure (SMILES)	IC50 (Aurora-A)	solubility kinetic at 10 s [1]	IC50 (Aurora A)	also measured
COc1cc(Nc2ncc3c(n2)-c2ccc(Cl)cc2C(c2c(F)cccc2OC)=NC3)ccc1C(=O)O [alisertib]			1.2 nM	
O=C1CCCc2cc(-c3ccnc(Nc4cccc(O)c4)n3)ccc2N1 [Compound 2m, 7-[2-(3-Hydroxyanilino)pyrimidin-4-yl]-1,3,4,5-tetrahydro-2H-1-benzazepin-2-one]	1700 nM	112 µM (≈ 38.8 µg/mL)		IC50 (VEGF-R3): 540 nM; IC50 (VEGF-R2): 780 nM; IC50 (Aurora-B): 6700 nM

Second part, led by results:

IC50 (Aurora-A)	solubility kinetic at 10 s [1]	Structure (SMILES)	IC50 (Aurora A)	also measured
2500 nM	25 µM (≈ 14.6 µg/mL)	COc1ccc(Nc2nccc(-c3ccc4c(c3)CCCC(=O)N4)n2)cc1OCCCNS(=O)(=O)N1CCOCC1 [Compound 14f, N-{3-[2-Methoxy-5-((4-(2-oxo-2,3,4,5-tetrahydro-1H-benzo[b]azepin-7-yl)pyrimidin-2-yl)amino)phenoxy]-propyl}morpholine-4-sulfonamide]		
3000 nM	19.6 µM (≈ 10.8 µg/mL)	O=C1CCCc2cc(-c3ccnc(Nc4cccc(OCCCNS(=O)(=O)N5CCOCC5)c4)n3)ccc2N1 [Compound 14b, N-{3-[3-((4-(2-Oxo-2,3,4,5-tetrahydro-1H-benzo[b]azepin-7-yl)pyrimidin-2-yl)amino)phenoxy]-propyl}morpholine-4-sulfonamide]		
1100 nM	21.4 µM (≈ 11.8 µg/mL)	COc1ccc(Nc2nccc(-c3ccc4c(c3)CCCC(=O)N4)n2)cc1OCCCN1CCN(C)S1(=O)=O [Compound 14e, 7-(2-((4-Methoxy-3-(3-(5-methyl-1,1-dioxido-1,2,5-thiadiazolidin-2-yl)propoxy)phenyl)amino)pyrimidin-4-yl)-1,3,4,5-tetrahydro-2H-benzo[b]azepin-2-one]		
